Tested on: MiaPaCa-2 cells
Experiment: MiaPaCa-2 Cell proliferation assay in 3D culture (CCK8)
Format: cell-based
Conditions: Homo sapiens, MIA PaCa-2, 120 h; 3D spheroid culture, 5 days with compound, CCK8 readout
Protocol: MiaPaCa-2 Cell proliferation assay in 3D culture. To evaluate cell viability, MiaPaCa-2 cells in logarithmic growth phase were seeded at optimal density and grown in as spheroids. Cells were incubated for 24 hours prior to the addition of different concentrations of the compounds. Cells were cultured with the compounds for 5 days and the cell viability was assessed using CCK8. Briefly, 2500 cells were seeded in round bottom ultra-low attachment 96 well plates (coming) in growth media supplemented with 10% FBS and incubated at 37° C. for 24 hours. The compounds were dissolved in DMSO (Sigma) to obtain 10 mM stock solution. Then the compounds were serially diluted in 3-fold to ten concentrations; 5 μL of the dilution above was transferred to 95 uL culture media to obtain the 50× compound stock solution; 4 uL of the 50× compound above was then transferred to the wells containing cells with 196 μL of the culture medium to obtain the final 1× concentration. The final concentration of DMSO was 0.1%. Spheroid cells were incubated in compounds for 5 days. Then 20 μL WST-8 solution (DOJINDO, Cell Counting KIT-8) was added to each well. The plates were further incubated at 37° C. for 1.5 hours, and then absorbance at 450 nm was measured using a microplate reader. Each compound was tested in triplicate and the IC50 value was calculated using GraphPad Prism.
The IC50 values of for Compounds disclosed are listed in Table 2, A: ≤500 nM; B: >500 nM and ≤5 μM; C: >5 μM and ≤50 μM; and D: >50 μM.

| Compound | IC50 [nM] |
| --- | --- |
| C[C@@H]1OCC2(CCN(c3cnc(Sc4ccnc(NC(=O)NS(=O)(=O)c5ccccc5)c4Cl)cn3)CC2)[C@@H]1N [Example 6, N-((4-((5-((3S,4S)-4-amino-3-methyl-2-oxa-8-azaspiro[4.5]decan-8-yl)pyrazin-2-yl)thio)-3-chloropyridin-2-yl)carbamoyl)benzenesulfonamide] | ≤ 500 |
| Cc1nc(N2CCC(C)(CN)CC2)c(CO)nc1Sc1ccnc(NC(=O)NS(=O)(=O)c2ccccc2)c1Cl [Example 9, N-((4-((5-(4-(aminomethyl)-4-methylpiperidin-1-yl)-6-(hydroxymethyl)-3-methylpyrazin-2-yl)thio)-3-chloropyridin-2-yl)carbamoyl)benzenesulfonamide] | ≤ 500 |
| C[C@@H]1OCC2(CCN(c3cnc(Sc4cccc(NC(=O)NS(=O)(=O)c5ccccc5F)c4Cl)cn3)CC2)[C@@H]1N [Example 10, N-((3-((5-((3S,4S)-4-amino-3-methyl-2-oxa-8-azaspiro[4.5]decan-8-yl)pyrazin-2-yl)thio)-2-chlorophenyl)carbamoyl)-2-fluorobenzenesulfonamide] | ≤ 500 |
| Cc1nc(N2CCC3(CC2)CO[C@@H](C)[C@H]3N)c(CO)nc1Sc1cccc(NC(=O)NS(=O)(=O)c2ccccc2)c1Cl [Example 11, N-((3-((5-((3S,4S)-4-amino-3-methyl-2-oxa-8-azaspiro[4.5]decan-8-yl)-6-(hydroxymethyl)-3-methylpyrazin-2-yl)thio)-2-chlorophenyl)carbamoyl)benzenesulfonamide] | ≤ 500 |
| C[C@@H]1OCC2(CCN(c3cnc(Sc4cccc(NS(=O)(=O)NC(=O)Nc5ccccc5)c4Cl)cn3)CC2)[C@@H]1N [Example 12, ((3S,4S)-8-(5-((2-chloro-3-((N-(phenylcarbamoyl)sulfamoyl)amino)phenyl)thio)pyrazin-2-yl)-3-methyl-2-oxa-8-azaspiro[4.5]decan-4-yl)amine] | ≤ 500 |
| C[C@@H]1OCC2(CCN(c3cnc(Sc4cccc(NC(=O)NS(=O)(=O)N5CCCC5)c4Cl)cn3)CC2)[C@@H]1N [Example 13, N-((3-((5-((3S,4S)-4-amino-3-methyl-2-oxa-8-azaspiro[4.5]decan-8-yl)pyrazin-2-yl)thio)-2-chlorophenyl)carbamoyl)pyrrolidine-1-sulfonamide] | ≤ 500 |
| N[C@@H]1c2ncccc2CC12CCN(c1cnc(Sc3ccnc(NC(=O)NS(=O)(=O)c4ccccc4)c3Cl)cn1)CC2 [Example 14, (S)—N-((4-((5-(7-amino-5,7-dihydrospiro[cyclopenta[b]pyridine-6,4′-piperidin]-1′-yl)pyrazin-2-yl)thio)-3-chloropyridin-2-yl)carbamoyl)benzenesulfonamide] | 500 to 5000 |
| C[C@@H]1OCC2(CCN(c3ncc(Sc4ccnc(NC(=O)NS(=O)(=O)c5ccccc5)c4Cl)c4nncn34)CC2)[C@@H]1N [Example 15, N-((4-((5-((3S,4S)-4-amino-3-methyl-2-oxa-8-azaspiro[4.5]decan-8-yl)[1,2,4]triazolo[4,3-c]pyrimidin-8-yl)thio)-3-chloropyridin-2-yl)carbamoyl)benzenesulfonamide] | 500 to 5000 |
| C[C@@H]1OCC2(CCN(c3cnc(Sc4cccc(NS(=O)(=O)NC(=O)N5CCCC5)c4Cl)cn3)CC2)[C@@H]1N [Example 16, N—(N-(3-((5-((3S,4S)-4-amino-3-methyl-2-oxa-8-azaspiro[4.5]decan-8-yl)pyrazin-2-yl)thio)-2-chlorophenyl)sulfamoyl)pyrrolidine-1-carboxamide] | ≤ 500 |
| C[C@@H]1OCC2(CCN(c3cnc(Sc4cccc(S(=O)(=O)NC(=O)NC5CCCC5)c4Cl)cn3)CC2)[C@@H]1N [Example 17, 3-((5-((3S,4S)-4-amino-3-methyl-2-oxa-8-azaspiro[4.5]decan-8-yl)pyrazin-2-yl)thio)-2-chloro-N-(cyclopentylcarbamoyl)benzenesulfonamide] | ≤ 500 |
| CC1(CN)CCN(c2cnc(Sc3cccc(C(=O)NS(=O)(=O)C4CCCC4)c3Cl)c(N)n2)CC1 [Example 44, 3-((3-amino-5-(4-(aminomethyl)-4-methylpiperidin-1-yl)pyrazin-2-yl)thio)-2-chloro-N-(cyclopentylsulfonyl)benzamide] | ≤ 500 |
| CC1(CN)CCN(c2cnc(Sc3cccc(NC(=O)NS(=O)(=O)c4ccccn4)c3Cl)c(N)n2)CC1 [Example 45, N-((3-((3-amino-5-(4-(aminomethyl)-4-methylpiperidin-1-yl)pyrazin-2-yl)thio)-2-chlorophenyl)carbamoyl)pyridine-2-sulfonamide] | ≤ 500 |
| CC1(CN)CCN(c2cnc(Sc3cccc(NC(=O)NS(=O)(=O)c4cccnc4)c3Cl)c(N)n2)CC1 [Example 46, N-((3-((3-amino-5-(4-(aminomethyl)-4-methylpiperidin-1-yl)pyrazin-2-yl)thio)-2-chlorophenyl)carbamoyl)pyridine-3-sulfonamide] | ≤ 500 |
| CC1(CN)CCN(c2cnc(Sc3cccc(NC(=O)NS(=O)(=O)c4ccccc4F)c3Cl)c(N)n2)CC1 [Example 47, N-((3-((3-amino-5-(4-(aminomethyl)-4-methylpiperidin-1-yl)pyrazin-2-yl)thio)-2-chlorophenyl)carbamoyl)-2-fluorobenzenesulfonamide] | 500 to 5000 |
| CC1(CN)CCN(c2cnc(Sc3ccnc(NC(=O)NS(=O)(=O)c4ccccc4)c3Cl)cn2)CC1 [Example 48, N-((4-((5-(4-(aminomethyl)-4-methylpiperidin-1-yl)pyrazin-2-yl)thio)-3-chloropyridin-2-yl)carbamoyl)benzenesulfonamide] | ≤ 500 |
| C[C@@H]1OCC2(CCN(c3cnc(Sc4cccc(NC(=O)NS(=O)(=O)c5ccccc5)c4Cl)cn3)CC2)[C@@H]1N [Example 49, N-((3-((5-((3S,4S)-4-amino-3-methyl-2-oxa-8-azaspiro[4.5]decan-8-yl)pyrazin-2-yl)thio)-2-chlorophenyl)carbamoyl)benzenesulfonamide] | ≤ 500 |
| C[C@@H]1OCC2(CCN(c3cnc(Sc4ccnc(NC(=O)NS(=O)(=O)c5cccc(F)c5)c4Cl)cn3)CC2)[C@@H]1N [Example 50, N-((4-((5-((3S,4S)-4-amino-3-methyl-2-oxa-8-azaspiro[4.5]decan-8-yl)pyrazin-2-yl)thio)-3-chloropyridin-2-yl)carbamoyl)-3-fluorobenzenesulfonamide] | ≤ 500 |
| C[C@@H]1OCC2(CCN(c3cnc(Sc4ccnc(NC(=O)NS(=O)(=O)c5cccnc5)c4Cl)cn3)CC2)[C@@H]1N [Example 51, N-((4-((5-((3S,4S)-4-amino-3-methyl-2-oxa-8-azaspiro[4.5]decan-8-yl)pyrazin-2-yl)thio)-3-chloropyridin-2-yl)carbamoyl)pyridine-3-sulfonamide] | 500 to 5000 |
| C[C@@H]1OCC2(CCN(c3cnc(Sc4ccnc(NC(=O)NS(=O)(=O)c5ccccc5F)c4Cl)cn3)CC2)[C@@H]1N [Example 52, N-((4-((5-((3S,4S)-4-amino-3-methyl-2-oxa-8-azaspiro[4.5]decan-8-yl)pyrazin-2-yl)thio)-3-chloropyridin-2-yl)carbamoyl)-2-fluorobenzenesulfonamide] | ≤ 500 |
| C[C@@H]1OCC2(CCN(c3cnc(Sc4ccnc(NC(=O)NS(=O)(=O)c5ccc(F)cc5)c4Cl)cn3)CC2)[C@@H]1N [Example 53, N-((4-((5-((3S,4S)-4-amino-3-methyl-2-oxa-8-azaspiro[4.5]decan-8-yl)pyrazin-2-yl)thio)-3-chloropyridin-2-yl)carbamoyl)-4-fluorobenzenesulfonamide] | ≤ 500 |

Source: patent publication US20250109118A1, “HETEROCYCLIC COMPOUNDS AS SHP2 INHIBITORS, COMPOSITIONS COMPRISING THE HETEROCYCLIC COMPOUND, AND METHODS OF USE THEREOF” (JS INNOMED HOLDINGS LTD., priority 2021, published 2025)
